# Reference: patent US11969460B2, “Methods and compositions for treating decreased cognitive ability” (Saint Louis University, priority 2018, dated 2024)
# Several values for one entry are separate records, joined by “and”; a condition that tells them apart may be missing. Equal values may be shown once.
# Assays:
# [1] = test system: male C57BL/6J (B6) mice, aged 18 months; test: Novel Object Recognition test after exogenous adropin^34-76 treatment; type: in vivo, mouse
# Procedure: For the novel object recognition task, mice are habituated to an empty apparatus, a 58×66×11-cm white plastic box, for 5 min a day for 3 consecutive days prior to entry of objects. On the first day of training, mice are placed in the testing apparatus with two identical objects (A and B). 24h later the animal is reintroduced to the arena but this time one of the original objects is removed and a new object (C). Total time spent exploring each of the two objects is recorded. Anxiety will be assessed using open field and elevated plus maze tests. The experimental apparatus consists of a central platform, two open arms and two equal-sized closed arms opposite to each other. The test consisted of placing a mouse in the central platform facing an enclosed arm and allowing it to freely explore the maze for 5 min. The number of entries into the open and closed arms and the time spent in open arms was measure by an observer blind to treatment
# (§1) To examine the effects of […] adropin on a subject's cognitive ability, 34 male C57BL/6J (B6) mice, aged 18 months, were treated with exogenous adropin^34-76. Mice were purchased from The Jackson Laboratory (Bar Harbor, ME). After acclimation for 1 month, mice were separated into two weight matched groups of 15 mice: Group 1 adropin^34-76 treatment group and Group 2 saline vehicle control.
# (§2) The mice were administered a single intraperitoneal injection (volume 100 μl) each morning (0900h) for 4 weeks. Group 1 was administered adropin^34-76 at a dose of 90 nmol/kg/day. Group 2 was administered saline. The peptide was purchased from Neoscientific Inc. Behavioral testing began after 2 weeks of injections. Injections continued though testing until 4 weeks.
# A non-amnesic subject will spend more time exploring the novel object than the familiar one. When adropin treated and vehicle treated mice were subjected to the Novel Object Recognition test, adropin treated mice spent more time exploring the novel object (FIG. 11, Table 1)
# mice [2] = test: Tolerability of adropin^34-76 doses in mice; type: in vivo, mouse
# Description: Using mice, the Inventors have shown that administration of adropin^34-76, in doses as low as 90 nmol/kg/day, delivered as two 45 nmol/kg injections, can be effective in producing changes in metabolism. Dose as high as 900 nmol/kg/d are well tolerated in mice. While the doses required for a desired clinical effect in humans is expected to vary between patients, the 90 nmol/kg dose administered by subcutaneous, intramuscular, or intravenous injection, either once or twice a day, may represent a preferred treatment protocol. It is anticipated that the treatments would be administered daily, although long-acting formulations involving weekly injections are envisaged. The optimum dose and frequency for a particular subject may be determined by the patient's treating physician, based on the patient's cognitive response. It is anticipated that adropin therapy may or may not improve a subject's cognitive function relative to current baseline, however adropin therapy may result in significant delays in the advancement of the disease. Improvement may manifest as a significant delay or a reduced rate of subsequent cognitive decline.
# [3] = Body weight and deaths during 4-week intraperitoneal treatment; type: in vivo; conditions: group 1, 90 nmol/kg/day intraperitoneal
# Procedure: as §1, §2
# [4] = test system: male C57BL/6J (B6) mice, aged 18 months; test: Aversive T-maze acquisition after exogenous adropin^34-76 treatment; type: in vivo, mouse
# Procedure: (§3) Memory retention and acquisition were assessed using an aversive T-maze and novel objective recognition, as previously described (Farr et al., (2016) J Alzheimers Dis.; 54(4):1339-1348). Briefly, the T-maze consists of a black plastic alley with a start box at one end and two goal boxes at the other. An electrifiable floor of stainless steel rods run throughout the maze to deliver a foot-shock using a scrambled grid floor shocker (Model E13-08, Coulbourn Instruments, Whitehall, PA). Mice are not permitted to explore the maze prior to training. A block of training trials begins when mice are placed in the start box. The guillotine door is raised and a cue buzzer sounded simultaneously (doorbell type, at 55 dB); 5s later a mild aversive foot-shock is applied with an intensity of 0.35 mA. The arm of the maze entered on the first trial is designated “incorrect” and the mild foot-shock continued until the mouse enters the other goal box, which in all subsequent trials is designated “correct” for each mouse. Mice are trained until they made one active avoidance, with an inter-trial interval of 30-35s. The number of trials to make one active avoidance is the measure of acquisition. Retention is tested 7d later, with training continued until the criterion of making five active avoidances in six consecutive trials is achieved. The number of trials needed to reach this criterion is the measure of retention(Butler et al., (2012) The Journal of clinical endocrinology and metabolism.; 97(10):3783-3791; Wong et al., (2014) The Journal of biological chemistry.; 289(37):25976-25986).
# as §1, §2
# Mice prepared with adropin or placebo in Example 3 were subjected to the Acquisition T-maze test.
# mice [5] = test: Metabolic effects of administered adropin^34-76 in mice; type: in vivo, mouse
# Description: The inventors have engineered transgenic mice that over express adropin (“AdrTG”) in the nervous system and peripheral tissues. […] In addition, reduced JNK phosphorylation and expression of cytokines indicates reduced neuroinflammatory processes. Inflammation is also increasingly considered an important predisposing risk factor for age-related neurodegeneration (Irwin & Vitiello (2019) Lancet Neurol. 18(3):296-306; Madhavan et a., Nat Rev Cardiol. 15(12):744-756). […] In addition, the inventors have also shown that adropin levels may be increased systemically by […] administration. […] (Kumar et al. 2008; Gao et al. 2014, 2015)
# Using mice, the Inventors have shown that administration of adropin^34-76, in doses as low as 90 nmol/kg/day, delivered as two 45 nmol/kg injections, can be effective in producing changes in metabolism. Dose as high as 900 nmol/kg/d are well tolerated in mice. While the doses required for a desired clinical effect in humans is expected to vary between patients, the 90 nmol/kg dose administered by subcutaneous, intramuscular, or intravenous injection, either once or twice a day, may represent a preferred treatment protocol. […] The optimum dose and frequency for a particular subject may be determined by the patient's treating physician, based on the patient's cognitive response. […]
# [6] = test system: male C57BL/6J (B6) mice, aged 18 months; test: Aversive T-maze retention after exogenous adropin^34-76 treatment; type: in vivo, mouse; design: key to T-maze Retention, Difference between means (Adropin vs. Vehicle): difference in trials to criterion, adropin minus vehicle; key to T-maze Retention: number of trials to reach criterion (5 avoidances in 6 trials)
# Procedure: as §3, §1, §2
# (FIG. 12, Table 3) Mice were retested in the maze after 7 days and Adropin treated mice retained learned memories and complete the maze in lets time.
# mice [7] = conditions: subjects with diet-induced obesity; Kumar et al. 2008; Gao et al. 2014, 2015; cited from earlier work
substance,measurement,setting,value
Adropin^34-76 (CHSRSADVDSLSESSPNSSPGPCPEKAPPPQKPSHEGSYLLQP; listed as Homo sapiens),"Novel Object Recognition % Novel Object, Difference between means (Adropin vs. Vehicle)",[1]; 95% confidence interval 2.733 to 27.24,14.99 ± 5.982%
same,Novel Object Recognition test 24 Hour delay % Novel Object,"[1]; individual mice, 90 nmol/kg/day intraperitoneal, 24 hour delay",55.56% and 77.50% and 66.67% and 79.10% and 51.06% and 100.00% and 51.61% and 46.43% and 42.86% and 53.06% and 37.50% and 40.74% and 64.58% and 62.50% and 58.82%
same,"Novel Object Recognition % Novel Object, Mean ± SEM","[1]; n = 15, 90 nmol/kg/day intraperitoneal, P 0.0183 vs. Vehicle","58.88 ± 4.106, n = 15%"
same,cognitive performance in Novel Object Recognition test (in words),[1]; vs vehicle treated mice,improved cognitive performance
same,well tolerated dose,mice [2],≤ 900 nmol/kg/day
same,deaths during treatment,[3],One mouse in group 1 died
same,"T-maze acquisition, Difference between means (Adropin vs. Vehicle)",[4]; 95% confidence interval −4.736 to −2.150,−3.443 ± 0.6301
same,T-maze acquisition,"[4]; individual mice, number of trials to make one active avoidance, 90 nmol/kg/day intraperitoneal",7. (5×) and 8. (4×) and 9. (2×) and 6. (3×)
same,"T-maze acquisition, Mean ± SEM","[4]; n = 14, P <0.0001 vs. Vehicle","7.357 ± 0.2695,"
same,performance in Acquisition T-maze test (in words),[4]; vs placebo treated mice,improved performance
same,dose known to affect metabolic control,"mice [5]; male B6 mice, injection",about 450 nmol/kg
same,dose effective in producing changes in metabolism,"mice [5]; mice, delivered as two 45 nmol/kg injections",≥ 90 nmol/kg/day
same,"T-maze Retention, Difference between means (Adropin vs. Vehicle)",[6]; 95% confidence interval −3.121 to −1.565,−2.343 ± 0.3792
same,T-maze Retention,"[6]; individual mice, retested after 7 days, trials to five active avoidances in six consecutive trials, 90 nmol/kg/day intraperitoneal",7. (7×) and 8. and 6. (5×) and 9.
same,"T-maze Retention, Mean ± SEM","[6]; n = 14, P <0.0001 vs. Vehicle","6.857 ± 0.2310,"
same,performance in T-maze retention (in words),[6]; retested after 7 days,superior performance
same,metabolic changes after intraperitoneal injection (in words),mice [7],metabolic changes suggesting improvements in glucose control and reduced risk for type 2 diabetes
